Publication PMC5941726, “Evaluating Hepatobiliary Transport with ^18F-Labeled Bile Acids: The Effect of Radiolabel Position and Bile Acid Structure on Radiosynthesis and In Vitro and In Vivo Performance” (Contrast Media & Molecular Imaging, 2018)
Several values for one entry are separate records, joined by “and”; a condition that tells them apart may be missing. Identical values can stand only once. Like-named read-outs stand apart in the source and are kept apart here.

Columns and labels:
[1] = LogD determination of the tracers; assay type: physicochemical
Method: (§1) The logD-value, stability (in formulation for use and mouse serum), and identity of the tracer were assessed as described earlier. Radiochemical purity and percentage ^18F-labeling of precursor were determined by radio-TLC (silica gel TLC; with 10% MeOH in CH2Cl2 and 4 : 1 AcN : H2O, resp.).

[2] = Stability of the tracer in formulation for use; assay type: physicochemical
Method: as §1

[3] = Stability of the tracer in mouse serum; assay type: in vitro ADME
Method: as §1

[4] = tested on: wild-type FVB-mice; test: Dynamic PET/CT imaging of hepatobiliary transport in wild-type FVB-mice; assay type: in vivo, mouse; conditions: for Time-to-peak liver / AUC GBI (gallbladder and intestines) / AUC liver (time-activity curve) / Max% ID GBI (gallbladder and intestines) / Max% ID liver: 9 MBq i.v., 1 hour PET-scan; for AUC GBI (gallbladder and intestines) / AUC liver (time-activity curve) / Max% ID GBI (gallbladder and intestines) / Max% ID liver: normalized for 20 g mouse
Method: The in vivo transport characteristics of the ^18F labeled bile acids were evaluated in wild-type FVB-mice (female, 5 w). The tracer described earlier, 3β-[^18F]FCA, was also included as a reference standard. Imaging was performed with a PET/CT (FLEX Triumph II small animal PET/CT-scanner; axial field of view: 7.5 cm; 1.3 mm spatial resolution; TriFoil Imaging). For each tracer, three animals were used. The animals were housed and handled in accordance with the European Ethics Committee guidelines and the experiments were approved by the Animal Experimental Ethical Committee of Ghent University (ECD 15/69).
Food and water were provided ad libitum, but the animals were fasted overnight before a PET/CT-scan. They were anesthetized with 1.5 v : v% isoflurane in O2 and placed on a heated bed. To allow injection of the tracer, a polyethylene intravenous line was inserted in the lateral tail vein and fixed. After the animals were transferred to the scanner animal bed, a 1 hour PET-scan was started and 9 MBq tracer was injected directly after starting the scan. Following this PET-scan, 9 MBq [^18F]FDG was injected and twenty minutes later, a second PET-scan with a 20-minute acquisition time was started.
All PET-scans were obtained in list-mode and were iteratively reconstructed (50 iterations). The 1-hour scan was reconstructed in the following frames: 8 × 15 s; 16 × 30 s; 10 × 60 s; 20 × 120 s. For presentation purposes, Maximum Intensity Projection PET/CT images were generated in Amide software. The data were analyzed using Pmod software v3.405 (PMOD Technologies): Regions Of Interest (ROIs) were drawn manually over the liver, gallbladder, and intestines. On the static [^18F]FDG scan, the left ventricle was delineated and this ROI was pasted on the dynamic scan to obtain an image-derived arterial blood concentration. The uptake of radioactivity in liver, gallbladder, and intestines was expressed as a percentage of the injected dose (% ID) and normalized for the weight of a 20 g mouse. The % ID in these organs was monitored in function of time to obtain time-activity curves (TACs). Biliary clearance of the tracers was determined with equation 2 from Ghibellini et al. [14](2) Biliary clearance=cumulative amount of tracer in gallbladder&intestines/AUC blood concentration0→60 min.
The Area Under the Curve (AUC), % ID, and time-to-peak values of the TACs were determined in GraphPad Prism v3.00 Software. The obtained parameters of the different ^18F labeled bile acids were compared to 3β-[^18F]FCA-values in SPSS Statistics 23 Software. Differences between two groups were analyzed with the nonparametric Mann–Whitney U test. A p value ≤ 0.05 was considered significant.

[5] = molecular target: T1, NTCP (Homo sapiens, UniProt Q14973); test: Inhibition of [^3H]taurocholate uptake in CHO cells expressing NTCP (competition assay); assay type: cell-based; conditions: for Ki: 1 μM [^3H]TC, 15 min 37°C, Cheng-Prusoff from IC50 and Km, mean ± SD n = 3
T1 construct: host or cells: Chinese Hamster Ovary (CHO) cells
T1 sequence (Q14973 1-349): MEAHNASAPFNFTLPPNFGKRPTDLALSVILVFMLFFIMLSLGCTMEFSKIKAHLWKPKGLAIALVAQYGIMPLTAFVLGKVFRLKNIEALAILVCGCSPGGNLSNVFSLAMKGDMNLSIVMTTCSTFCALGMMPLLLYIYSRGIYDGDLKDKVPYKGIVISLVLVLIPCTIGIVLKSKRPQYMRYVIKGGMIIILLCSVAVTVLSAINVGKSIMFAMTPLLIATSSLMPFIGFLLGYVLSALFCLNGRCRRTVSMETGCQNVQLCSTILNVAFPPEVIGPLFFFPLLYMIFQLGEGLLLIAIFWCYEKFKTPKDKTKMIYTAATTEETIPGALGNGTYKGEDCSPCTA
Source text: Maintenance of these cell cultures was described earlier.

[6] = molecular target: BSEP (Homo sapiens, UniProt O95342); test: Inhibition of [^3H]TC uptake in BSEP membrane vesicles (efflux assay)
Method: All dosing was performed in triplicate. The plates were suspended in a 37°C water bath 1 minute before the incubation. Incubation was started by adding 10 μL of the ATP solution or buffer solution (negative control). Each well contained a final volume of 30 μL and the plates were incubated for 10 minutes at 37°C.
The contents of each well were pipetted in a glass fiber filter plate (Multiscreen HTS plates; Merck Millipore) and washed 3 times with 200 μL ice-cold buffer solution. Finally, 100 μL 0.1 M NaOH was added: lysis of the vesicles took place for 10 minutes at room temperature. An aliquot was used for liquid scintillation counting.

[7] = molecular target: T2, OATP1B1 (Homo sapiens, UniProt Q9Y6L6)
T2 sequence (Q9Y6L6 1-691): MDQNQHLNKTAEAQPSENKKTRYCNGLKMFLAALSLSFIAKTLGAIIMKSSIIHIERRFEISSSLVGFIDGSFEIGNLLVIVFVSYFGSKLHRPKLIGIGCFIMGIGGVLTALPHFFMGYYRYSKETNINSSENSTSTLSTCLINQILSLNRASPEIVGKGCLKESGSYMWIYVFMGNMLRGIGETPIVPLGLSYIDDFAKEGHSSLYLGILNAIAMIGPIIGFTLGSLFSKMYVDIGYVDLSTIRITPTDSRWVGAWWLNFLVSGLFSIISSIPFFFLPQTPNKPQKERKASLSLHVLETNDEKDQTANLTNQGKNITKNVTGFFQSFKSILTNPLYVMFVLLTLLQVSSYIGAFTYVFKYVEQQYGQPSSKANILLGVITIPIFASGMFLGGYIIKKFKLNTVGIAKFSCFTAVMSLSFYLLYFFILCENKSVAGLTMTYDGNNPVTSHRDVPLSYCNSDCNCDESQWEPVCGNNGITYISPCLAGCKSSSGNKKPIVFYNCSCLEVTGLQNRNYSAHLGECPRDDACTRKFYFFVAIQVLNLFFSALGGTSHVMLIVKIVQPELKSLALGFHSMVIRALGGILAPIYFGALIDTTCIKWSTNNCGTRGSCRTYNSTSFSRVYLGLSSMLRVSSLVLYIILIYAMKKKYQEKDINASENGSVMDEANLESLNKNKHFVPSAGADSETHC
Method: (§2) Chinese Hamster Ovary (CHO) and Human Embryonic Kidney (HEK) cells expressing NTCP and OATP1B1, respectively (Solvo Biotechnologies), were used.
(§3) Cells were seeded in 24-well plates at 400,000 cells/well. […] All dosing solutions were formulated in the washing buffer and dosing was executed in triplicate. The incubation was stopped by placing the plates on ice and adding 1 mL ice-cold 1% BSA HBSS-solution. The supernatant was aspirated and the cells were washed twice with 2 mL ice-cold HBSS-solution. NaOH (250 μl, 0.1 M) was added to lyse the cells and the plates were shaken (15 minutes, 37°C). Aliquots of this lysate were subjected to liquid scintillation counting (TriCarb 2900 TR; Perkin Elmer) and protein determination with a BCA-assay (ThermoFisher Scientific).

[8] = molecular target: T2, OATP1B1; test: cell-based
Method: as §2, §3

[9] = molecular target: T2, OATP1B1; test: Inhibition of [^3H]estradiol-17β-glucuronide uptake in HEK cells expressing OATP1B1 (competition assay)
Method: as §2, §3

[10] = wild-type mice, i.v., after 1 hour
[11] = wild-type mice, cumulative amount in gallbladder & intestines / AUC blood concentration 0-60 min, n = 3
[12] = female, FVB, mouse, in vivo, iv, 9 MBq
[13] = female, FVB, mouse, in vivo, iv, 1 h

BSEP, sequence (O95342 whole entry, species assumed): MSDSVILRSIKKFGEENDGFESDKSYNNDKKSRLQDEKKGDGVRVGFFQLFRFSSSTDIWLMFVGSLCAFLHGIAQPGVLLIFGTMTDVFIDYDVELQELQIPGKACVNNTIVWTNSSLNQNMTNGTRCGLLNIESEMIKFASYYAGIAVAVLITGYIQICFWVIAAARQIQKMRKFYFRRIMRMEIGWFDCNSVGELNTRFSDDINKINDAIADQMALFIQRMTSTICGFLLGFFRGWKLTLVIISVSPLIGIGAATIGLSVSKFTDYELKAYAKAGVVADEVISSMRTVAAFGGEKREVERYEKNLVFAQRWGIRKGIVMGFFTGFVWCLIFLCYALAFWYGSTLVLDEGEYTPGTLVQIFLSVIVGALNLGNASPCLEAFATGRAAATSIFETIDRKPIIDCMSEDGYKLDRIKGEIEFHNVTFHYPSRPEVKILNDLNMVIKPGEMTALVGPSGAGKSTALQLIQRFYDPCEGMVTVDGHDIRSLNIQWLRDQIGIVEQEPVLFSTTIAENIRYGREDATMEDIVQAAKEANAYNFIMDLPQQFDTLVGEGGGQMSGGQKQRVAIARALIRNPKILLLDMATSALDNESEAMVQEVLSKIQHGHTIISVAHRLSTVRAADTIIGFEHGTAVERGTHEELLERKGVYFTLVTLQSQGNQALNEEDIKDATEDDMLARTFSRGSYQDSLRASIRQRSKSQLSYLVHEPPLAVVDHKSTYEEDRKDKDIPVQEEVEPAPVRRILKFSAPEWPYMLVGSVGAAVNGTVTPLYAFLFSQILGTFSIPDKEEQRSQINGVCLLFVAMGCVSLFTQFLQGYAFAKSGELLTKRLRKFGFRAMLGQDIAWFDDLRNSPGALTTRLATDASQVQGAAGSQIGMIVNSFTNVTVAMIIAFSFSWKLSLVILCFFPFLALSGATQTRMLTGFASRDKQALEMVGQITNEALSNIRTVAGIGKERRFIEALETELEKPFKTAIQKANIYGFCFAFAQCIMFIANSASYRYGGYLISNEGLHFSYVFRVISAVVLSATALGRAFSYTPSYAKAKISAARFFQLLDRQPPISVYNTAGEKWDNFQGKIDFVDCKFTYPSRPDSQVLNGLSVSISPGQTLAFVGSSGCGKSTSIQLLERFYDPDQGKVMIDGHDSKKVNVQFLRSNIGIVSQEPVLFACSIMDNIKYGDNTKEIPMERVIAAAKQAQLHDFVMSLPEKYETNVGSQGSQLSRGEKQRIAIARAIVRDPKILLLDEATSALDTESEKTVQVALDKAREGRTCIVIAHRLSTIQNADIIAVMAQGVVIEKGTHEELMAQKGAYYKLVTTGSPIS

C[C@H](CCC(=O)O)[C@H]1CC[C@H]2[C@@H]3[C@H](O)C[C@@H]4C[C@H]([18F])CC[C@]4(C)[C@H]3C[C@H](O)[C@]12C [3α-[^18F]FCA, 3α-[^18F]fluorocholic acid]
logD ([1]; n = 3, mean ± SD, read-out: LogD): 0.92 ± 0.17 | Stability in its formulation ([2]; formulation for use (phosphate buffered saline)): stable | Stability in mouse serum ([3]; mouse serum): stable | Time-to-peak liver ([4]; wild-type mice, n = 3): 3.33 ± 0.62 min and 3.33 ± 0.62^∗ min | AUC GBI (gallbladder and intestines) ([4]; wild-type mice, n = 3): 4184 ± 109^∗ % ID·min | AUC liver (time-activity curve) ([4]; wild-type mice, n = 3): 1065 ± 171^∗ % ID·min | Max% ID GBI (gallbladder and intestines) ([4]; wild-type mice, n = 3): 88.70 ± 2.38% | Max% ID liver ([4]; wild-type mice, n = 3): 58.58 ± 3.19% | Organ uptake after intravenous injection ([4]; wild-type mice, PET): exclusive hepatic uptake | Injected activity found in gallbladder and intestines after 1 hour [4, 10]: approx. 80% | Biliary clearance [4, 11]: 0.49 ± 0.10 mL/min

C[C@H](CCC(=O)O)[C@H]1CC[C@H]2[C@@H]3[C@H](O)C[C@@H]4C[C@H](F)CC[C@]4(C)[C@H]3C[C@H](O)[C@]12C [3αFCA, 3α-fluorocholic acid]
Ki [5]: 2.53 ± 0.76 µM | Ki [6]: 199 ± 39.5 µM | Ki [7]: 5.22 ± 0.56 µM

C[C@H](CCC(=O)O)[C@H]1CC[C@H]2[C@@H]3[C@H](O)C[C@@H]4C[C@@H]([18F])CC[C@]4(C)[C@H]3C[C@H](O)[C@]12C [3β-[^18F]FCA, 3β-[^18F]fluorocholic acid, reference compound]
Time-to-peak liver ([4]; wild-type mice, n = 3): 5.33 ± 0.24 min | AUC GBI (gallbladder and intestines) ([4]; wild-type mice, n = 3): 3499 ± 340 % ID·min | AUC liver (time-activity curve) ([4]; wild-type mice, n = 3): 1785 ± 194 % ID·min | Max% ID GBI (gallbladder and intestines) ([4]; wild-type mice, n = 3): 83.44 ± 9.27% | Max% ID liver ([4]; wild-type mice, n = 3): 63.80 ± 2.61% | Organ uptake after intravenous injection ([4]; wild-type mice, PET): exclusive hepatic uptake | Injected activity found in gallbladder and intestines after 1 hour [4, 10]: approx. 80% | Biliary clearance [4, 11]: 0.46 ± 0.08 mL/min

C[C@H](CCC(=O)O)[C@H]1CC[C@H]2[C@@H]3[C@H](O)C[C@@H]4C[C@@H]([18F])CC[C@]4(C)[C@H]3CC[C@]12C [3β-[^18F]FCDCA, 3β-[^18F]fluorochenodeoxycholic acid]
logD [1]: 1.42 ± 0.16 | Stability in its formulation [2]: stable | Stability in mouse serum [3]: stable | Biliary clearance [4, 12]: 0.18 ± 0.04^∗ mL/min | Injected activity found in gallbladder and intestines after 1 hour [4, 13]: 60% | Organ uptake after intravenous injection ([4]; mouse, in vivo, iv): exclusive hepatic uptake

C[C@H](CCC(=O)NCC(=O)O)[C@H]1CC[C@H]2[C@@H]3[C@H](O)C[C@@H]4C[C@@H]([18F])CC[C@]4(C)[C@H]3C[C@H](O)[C@]12C [3β-[^18F]FGCA, 3β-[^18F]fluoroglycocholic acid]
logD [1]: 0.011 ± 0.037 | Stability in its formulation [2]: stable | Stability in mouse serum [3]: stable | Biliary clearance [4, 12]: 0.47 ± 0.07 mL/min | Injected activity found in gallbladder and intestines after 1 hour [4, 13]: approx. 80% | Organ uptake after intravenous injection ([4]; mouse, in vivo, iv): exclusive hepatic uptake

C[C@H](CCC(=O)O)[C@H]1CC[C@H]2[C@@H]3[C@H](O)C[C@@H]4C[C@@H](F)CC[C@]4(C)[C@H]3CC[C@]12C [3βFCDCA]
Ki [5]: 0.91 ± 0.02 µM | Ki [6]: 48.2 ± 3.94 µM | Ki [7]: 0.64 ± 0.07 µM

C[C@H](CCC(=O)NCC(=O)O)[C@H]1CC[C@H]2[C@@H]3[C@H](O)C[C@@H]4C[C@@H](F)CC[C@]4(C)[C@H]3C[C@H](O)[C@]12C [3βFGCA, 3β F glycocholic acid]
Ki [5]: 1.09 ± 0.34 µM | Ki [6]: 87.4 ± 14.6 µM | Ki [7]: 4.24 ± 0.16 µM

C[C@H](CCC(=O)O)[C@H]1CC[C@H]2[C@@H]3[C@H](O)C[C@@H]4C[C@H](O)CC[C@]4(C)[C@H]3C[C@@H](F)[C@]12C [12βFCA]
Ki [5]: 30.1 ± 9.4 µM | Ki ([6]; read-out: Ki for BSEP, BSEP membrane vesicles, 0.65 μM [^3H]TC, 10 min 37°C, Cheng-Prusoff from IC50 and Km, mean ± SD n = 3): 367 ± 38.1 µM | Ki [7]: 4.56 ± 0.25 µM

C[C@H](CCC(=O)O)[C@H]1CC[C@H]2[C@@H]3[C@H](O)C[C@@H]4C[C@H](O)CC[C@]4(C)[C@H]3C[C@H](O)[C@]12C [CA, Cholic acid]
Ki [8]: 42.7 ± 0.16 µM

C[C@]12CC[C@@H]3c4ccc(O)cc4CC[C@H]3[C@@H]1CC[C@@H]2O[C@@H]1O[C@H](C(=O)O)[C@@H](O)[C@H](O)[C@H]1O [[^3H]EbG, [^3H]estradiol-17β-glucuronide]
Vmax of substrate uptake ([9]; 0–150 μM, 10 min 37°C): 146.4 ± 5.52 pmol/min·mg protein | Km ([9]; read-out: Km (Michaelis-Menten) of substrate uptake, 0–150 μM, 10 min 37°C): 11.7 ± 1.59 µM

C[C@H](CCC(=O)NCCS(=O)(=O)O)[C@H]1CC[C@H]2[C@@H]3[C@H](O)C[C@@H]4C[C@H](O)CC[C@]4(C)[C@H]3C[C@H](O)[C@]12C [[^3H]TC, [^3H]taurocholate, reference compound]
Vmax of substrate uptake ([5]; 0–150 μM, 10 min 37°C): 200.4 ± 9.77 pmol/min·mg protein | Km ([5]; 0–150 μM, 10 min 37°C, read-out: Km (Michaelis-Menten) of substrate uptake): 15.3 ± 2.46 µM
